# System: hiRPCp2
# Experiment: Differentiation ability of hiRPCp2 expanded in K+ medium (qRT-PCR of CRX and BRN3A)
# Format: cell-based, human
# Details: Diff-2, late forced differentiation in ProB27 medium supplemented by DAPT, D10, qRT-PCR of CRX
# Method: Total RNAs were extracted using Nucleospin RNA II kit (Macherey-Nagel) according to the manufacturer's protocol, and RNA yields and quality were checked with a NanoDrop spectrophotometer (Thermo Fisher Scientific). cDNA were synthesized from 250 ng of mRNA using the QuantiTect reverse transcription kit (Qiagen) following manufacturer's recommendations. Synthesized cDNA were then diluted at 1/20 in DNase-free water before performing quantitative PCR. qPCR analysis was performed on an Applied Biosystems real-time PCR machine (7500 Fast System) with custom TaqMan® Array 96-Well Fast plates and TaqMan® Gene expression Master Mix (Thermo Fisher Scientific) following manufacturer's instructions. All primers and MGB probes labeled with FAM for amplification were purchased from Thermo Fischer Scientific as described in Reichman et al., 2017 [2], ASCL1 (Assay ID Hs04187546_g1). Results were normalized against 18S and quantification of gene expression was based on the DeltaCt Method.
# We tested the ability of the hiRPCs expanded after two passages (hiRPCp2) in K+ medium to be differentiated in retinal neurons. Three different culture conditions were tested: 1—By a spontaneous differentiation in ProB27 medium, a control condition. 2—By an “early forced” differentiation using ProB27 medium supplemented by DAPT, a Notch pathway inhibitor, directly after K+ medium condition at D3 (Diff 1). […]
compound,measurement,value
C[C@H](NC(=O)Cc1cc(F)cc(F)c1)C(=O)N[C@H](C(=O)OC(C)(C)C)c1ccccc1 [DAPT],differentiation of hiRPCp2,favors the hiRPCs differentiation in photoreceptor precursors

# Source: US20260132374A1, “Compositions and Methods for Efficient Amplification of Retinal Progenitors Cells” (SORBONNE UNIVERSITE, priority 2018, published 2026)
